Measured values reported in publication PMC9343605, “Structural insights into ligand recognition and selectivity of somatostatin receptors” (Cell Research, 2022).
Positions of bridges follow the written chain, without caps; N, C: chain ends. Residues, ends and D or L forms follow the SMILES beside them.

How the values were obtained:
[1] = target: T1, SSTR4 (Homo sapiens, UniProt P31391, F211A); assay: cAMP accumulation assay (agonist-induced inhibition of forskolin-stimulated cAMP), SSTR4, HEK293F; assay type: cell-based; conditions: SSTR4 mutant F211^5.38A, mean ± SEM;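 note: transiently transfected cells incubated 40 min at room temperature with 4 µM forskolin and graded ligand, cAMP read by LANCE Ultra TR-FRET kit, values normalized to WT receptor per ligand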
T1 construct: expressed in transfected cells; host or cells: HEK293F
Description: (§1) HEK293F cells were transiently transfected with WT or mutant SSTR2/SSTR4 using transfection reagent (PEI MAX 2000, Polysciences) and incubated at 37 °C in 5% CO2. Forty-eight hours after transfection, cells were centrifuged and resuspended in stimulation buffer (Hanks’ balanced salt solution (HBSS) supplemented with 5 mM HEPES, 0.5 mM IBMX and 0.1% (w/v) bovine serum albumin (BSA), pH 7.4) to a density of 200,000 cells/mL and added to 384-well white plates (PerkinElmer, 1000 cells/well). cAMP accumulation was measured by a LANCE Ultra cAMP kit (PerkinElmer) according to the manufacturer’s instructions. In brief, transfected cells were incubated for 40 min in stimulation buffer with 2.5 μL forskolin (SSTR2: 2 μM; SSTR4: 4 μM) and gradient concentration of ligand at RT. The reactions were stopped by addition of lysis buffer containing 5 μL Eu-cAMP tracer and 5 μL ULight-anti-cAMP. Plates were then incubated for 60 min at RT and time-resolved FRET signals were measured at 620 nm and 665 nm by an EnVision multilabel plate reader (PerkinElmer). Data were analyzed in GraphPad PRISM 8 and all values were normalized to the WT for each ligand. All outcomes were repeated at least three times.
(§2) aMutants represent that mutations were introduced separately into the WT receptors and
(§3) transiently expressed in HEK 293F cells.
(§4) bThe EC50 ratio was shown as EC50(mutant)/EC50(WT), indicating the shift between the WT
(§5) and mutant curves, reflecting the effect of the mutations on receptor signaling.
(§6) cData are shown as mean ± S.E.M. from at least three independent experiments
(§7) performed in technical triplicate. One-way ANOVA was performed followed by
(§8) Dunnett’s post-test and compared with WT. The P value was defined as: *P<0.05;
(§9) d The span is defined as the window between the maximal agonists response (Emax) and
(§10) e Sample size; the number of independent experiments performed in technical triplicate.
(§11) f Receptor expression level of HEK 293F cells was determined independently by flow
(§12) cytometry with anti-FLAG antibody and shown as per cent compared to the WT.

[2] = target: T2, SSTR4 (Homo sapiens, UniProt P31391, L297A); assay: as above; assay type: cell-based; conditions: SSTR4 mutant L297^7.39A, mean ± SEM
T2 construct: expressed in transfected cells; host or cells: HEK293F
Description: as §1, §2, §3, §4, §5, §6, §7, §8, §9, §10, §11, §12

[3] = target: T3, SSTR4 (Homo sapiens, UniProt P31391, N282A); assay: as above; assay type: cell-based; conditions: SSTR4 mutant N282^6.58A, mean ± SEM
T3 construct: expressed in transfected cells; host or cells: HEK293F
Description: as §1, §2, §3, §4, §5, §6, §7, §8, §9, §10, §11, §12

[4] = target: T4, SSTR4 (Homo sapiens, UniProt P31391, N293A); assay: as above; assay type: cell-based; conditions: SSTR4 mutant N293^7.35A, mean ± SEM
T4 construct: expressed in transfected cells; host or cells: HEK293F
Description: as §1, §2, §3, §4, §5, §6, §7, §8, §9, §10, §11, §12

[5] = target: SSTR4 (Homo sapiens, UniProt P31391, N293F); assay: as above; assay type: cell-based; conditions: HEK293F; SSTR4 mutant N293^7.35F; mean ± SEM; read-out: Span
Description: as §1, §2, §3, §4, §5, §6, §7, §8, §9, §10, §11, §12

[6] = target: SSTR4 (Homo sapiens, UniProt P31391, R110A); assay: as above; assay type: cell-based; conditions: SSTR4 mutant R110^ECL1A, mean ± SEM
Description: as §1, §2, §3, §4, §5, §6, §7, §8, §9, §10, §11, §12

[7] = target: SSTR4 (Homo sapiens, UniProt P31391, S208W); assay: as above; assay type: cell-based; conditions: SSTR4 mutant S208^5.35W, mean ± SEM
Description: as §1, §2, §3, §4, §5, §6, §7, §8, §9, §10, §11, §12

[8] = target: T4, SSTR4; assay: Whole cell binding assay, SSTR4, competition with 125I-Tyr11-SST14, CHO-K1; conditions: SSTR4 mutant N293^7.35A, mean ± SEM
Description: (§13) For SSTR2 and SSTR4, CHO-K1 cells were cultured in F12 medium with 10% FBS and seeded at a density of 30,000 cells/well in Isoplate-96 plates (PerkinElmer). Twenty-four hours after transfection with the WT or mutant SSTR2/SSTR4, CHO-K1 cells were washed twice and incubated with blocking buffer (F12 supplemented with 25 mM HEPES and 0.1% (w/v) BSA, pH 7.4) for 2 h at 37 °C. […] Following incubation, cells were washed three times with ice-cold PBS and lysed by 50 μL lysis buffer (PBS supplemented with 20 mM Tris-HCl, 1% Triton X-100, pH 7.4). The radioactivity was subsequently counted (counts/min, CPM) in a scintillation counter (MicroBeta[2] Plate Counter, PerkinElmer) using a scintillation cocktail (OptiPhaseSuperMix, PerkinElmer). Data were analyzed by nonlinear regression using GraphPad PRISM 8.
(§14) aMutants represent that all mutations were introduced separately into the WT receptors
and expressed in CHO K1 cells.
(§15) bThe IC50 ratio was shown as IC50(mutant)/IC50(WT), indicating the shift between the WT
(§16) and mutant curves, reflecting the effect of the mutations on ligand binding.
(§17) cData are shown as mean ± S.E.M. form at least three independent experiments
as §7
(§18) Dunnett’s post-test and compared with WT.
as §9, §10

[9] = target: SSTR4 (Homo sapiens, UniProt P31391, S208A); assay: as above; conditions: SSTR4 mutant S208^5.35A, mean ± SEM
Description: as §13, §14
and expressed in CHO K1 cells.
as §15, §16, §17, §7, §18, §9, §10

[10] = target: T5, SSTR4 (Homo sapiens, UniProt P31391); assay: as above; design: expressed in transfected cells; conditions: WT SSTR4, mean ± SEM
Description: as §13, §14
and expressed in CHO K1 cells.
as §15, §16, §17, §7, §18, §9, §10

[11] = target: SSTR4 (Homo sapiens, UniProt P31391, D126A); assay: as above; design: expressed in transfected cells; conditions: CHO-K1; SSTR4 mutant D126^3.32A; mean ± SEM; read-out: Span
Description: as §13, §14
and expressed in CHO K1 cells.
as §15, §16, §17, §7, §18, §9, §10

[12] = target: T6, SSTR4 (Homo sapiens, UniProt P31391, F275A); assay: as above; design: expressed in transfected cells; conditions: CHO-K1; SSTR4 mutant F275^6.51A; mean ± SEM; read-out: Span
Description: as §13, §14
and expressed in CHO K1 cells.
as §15, §16, §17, §7, §18, §9, §10

[13] = target: T7, SSTR4 (Homo sapiens, UniProt P31391, M130A); assay: as above; design: expressed in transfected cells; conditions: CHO-K1; SSTR4 mutant M130^3.36A; mean ± SEM; read-out: Span
Description: as §13, §14
and expressed in CHO K1 cells.
as §15, §16, §17, §7, §18, §9, §10

[14] = target: T8, SSTR4 (Homo sapiens, UniProt P31391, N199A); assay: as above; design: expressed in transfected cells; conditions: CHO-K1; SSTR4 mutant N199^ECL2A; mean ± SEM; read-out: Span
Description: as §13, §14
and expressed in CHO K1 cells.
as §15, §16, §17, §7, §18, §9, §10

[15] = target: T9, SSTR4 (Homo sapiens, UniProt P31391, Q279A); assay: as above; design: expressed in transfected cells; conditions: SSTR4 mutant Q279^6.55A, mean ± SEM
Description: as §13, §14
and expressed in CHO K1 cells.
as §15, §16, §17, §7, §18, §9, §10

[16] = target: T10, SSTR4 (Homo sapiens, UniProt P31391, T215A); assay: as above; design: expressed in transfected cells; conditions: SSTR4 mutant T215^5.42A, mean ± SEM
Description: as §13, §14
and expressed in CHO K1 cells.
as §15, §16, §17, §7, §18, §9, §10

[17] = target: SSTR4 (Homo sapiens, UniProt P31391, Y301A); assay: as above; design: expressed in transfected cells; conditions: CHO-K1; SSTR4 mutant Y301^7.43A; mean ± SEM; read-out: Span
Description: as §13, §14
and expressed in CHO K1 cells.
as §15, §16, §17, §7, §18, §9, §10

[18] = target: T5, SSTR4; assay: cAMP accumulation assay (agonist-induced inhibition of forskolin-stimulated cAMP), SSTR4, HEK293F; assay type: cell-based; design: expressed in transfected cells; host or cells: HEK293F; conditions: HEK293F, WT SSTR4, mean ± SEM;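 note: transiently transfected cells incubated 40 min at room temperature with 4 µM forskolin and graded ligand, cAMP read by LANCE Ultra TR-FRET kit, values normalized to WT receptor per ligand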
Description: as §1, §2, §3, §4, §5, §6, §7, §8, §9, §10, §11, §12

[19] = target: T6, SSTR4; assay: as above; assay type: cell-based; design: expressed in transfected cells; host or cells: HEK293F; conditions: SSTR4 mutant F275^6.51A, mean ± SEM
Description: as §1, §2, §3, §4, §5, §6, §7, §8, §9, §10, §11, §12

[20] = target: T7, SSTR4; assay: as above; assay type: cell-based; design: expressed in transfected cells; host or cells: HEK293F; conditions: SSTR4 mutant M130^3.36A, mean ± SEM
Description: as §1, §2, §3, §4, §5, §6, §7, §8, §9, §10, §11, §12

[21] = target: T8, SSTR4; assay: as above; assay type: cell-based; design: expressed in transfected cells; host or cells: HEK293F; conditions: SSTR4 mutant N199^ECL2A, mean ± SEM
Description: as §1, §2, §3, §4, §5, §6, §7, §8, §9, §10, §11, §12

[22] = target: T9, SSTR4; assay: as above; assay type: cell-based; design: expressed in transfected cells; host or cells: HEK293F; conditions: SSTR4 mutant Q279^6.55A, mean ± SEM
Description: as §1, §2, §3, §4, §5, §6, §7, §8, §9, §10, §11, §12

[23] = target: T10, SSTR4; assay: as above; assay type: cell-based; design: expressed in transfected cells; host or cells: HEK293F; conditions: SSTR4 mutant T215^5.42A, mean ± SEM
Description: as §1, §2, §3, §4, §5, §6, §7, §8, §9, §10, §11, §12

[24] = tested on: SSTR1–5; conditions: cited from earlier work
Description: Somatostatin (SST), an inhibitory hormone that distributes widely in both human central nervous system and periphery tissues negatively regulates multiple hormone releases (growth hormone, glucagon, insulin, gastrin and cholecystokinin) and cell proliferation through SST receptors (SSTRs).[1]–[4] There are five types of SSTRs, namely SSTR1–SSTR5, which are divided into two subfamilies: SRIF1 (SSTR2, SSTR3, SSTR5) and SRIF2 (SSTR1, SSTR4) based on phylogenetic, sequence homology and ligand binding profiles.[5] Two bioactive SST peptides, SST-14 and its N-terminally extended form SST-28, have be ...

[25] = cited from earlier work
Description: Along with increased knowledge of the pharmacological effects of these receptors, medical application of SST and its analogs has expanded. A considerable amount of effort has been made to develop new therapeutics for oncology of SSTRs. […] It was found recently that radiolabeled SSTR antagonists produced superi ...

[26] = at least three independent experiments

T8 sequence (P31391 whole entry N199A): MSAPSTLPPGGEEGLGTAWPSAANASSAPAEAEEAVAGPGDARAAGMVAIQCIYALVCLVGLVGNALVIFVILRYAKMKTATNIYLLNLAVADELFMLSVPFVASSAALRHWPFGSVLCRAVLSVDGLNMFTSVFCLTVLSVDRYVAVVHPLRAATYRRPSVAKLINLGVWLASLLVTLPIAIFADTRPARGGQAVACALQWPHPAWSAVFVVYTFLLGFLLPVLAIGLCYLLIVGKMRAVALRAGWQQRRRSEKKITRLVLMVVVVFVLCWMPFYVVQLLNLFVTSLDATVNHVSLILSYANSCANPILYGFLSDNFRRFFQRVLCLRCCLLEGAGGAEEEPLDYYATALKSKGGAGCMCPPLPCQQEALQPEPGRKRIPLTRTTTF
T10 sequence (P31391 whole entry T215A): as the sequence (P31391 whole entry N199A) above, with A199N, T215A counted along it
T7 sequence (P31391 whole entry M130A): as the sequence (P31391 whole entry N199A) above, with M130A, A199N counted along it
T6 sequence (P31391 whole entry F275A): as the sequence (P31391 whole entry N199A) above, with A199N, F275A counted along it
T5 sequence (P31391 whole entry): as the sequence (P31391 whole entry N199A) above, with A199N counted along it
T9 sequence (P31391 whole entry Q279A): as the sequence (P31391 whole entry N199A) above, with A199N, Q279A counted along it
T4 sequence (P31391 whole entry N293A): as the sequence (P31391 whole entry N199A) above, with A199N, N293A counted along it
T3 sequence (P31391 whole entry N282A): as the sequence (P31391 whole entry N199A) above, with A199N, N282A counted along it
SSTR4 (Homo sapiens, UniProt P31391, R110A), sequence (P31391 whole entry R110A): as the sequence (P31391 whole entry N199A) above, with R110A, A199N counted along it
SSTR4 (Homo sapiens, UniProt P31391, S208W), sequence (P31391 whole entry S208W): as the sequence (P31391 whole entry N199A) above, with A199N, S208W counted along it
T2 sequence (P31391 whole entry L297A): as the sequence (P31391 whole entry N199A) above, with A199N, L297A counted along it
T1 sequence (P31391 whole entry F211A): as the sequence (P31391 whole entry N199A) above, with A199N, F211A counted along it
SSTR4 (Homo sapiens, UniProt P31391, S208A), sequence (P31391 whole entry S208A): as the sequence (P31391 whole entry N199A) above, with A199N, S208A counted along it
SSTR4 (Homo sapiens, UniProt P31391, D126A), sequence (P31391 whole entry D126A): as the sequence (P31391 whole entry N199A) above, with D126A, A199N counted along it
SSTR4 (Homo sapiens, UniProt P31391, N293F), sequence (P31391 whole entry N293F): as the sequence (P31391 whole entry N199A) above, with A199N, N293F counted along it
SSTR4 (Homo sapiens, UniProt P31391, Y301A), sequence (P31391 whole entry Y301A): as the sequence (P31391 whole entry N199A) above, with A199N, Y301A counted along it

In the case of `C[C@@H]1NC(=O)[C@H](Cc2ccccc2)NC(=O)[C@@H](N)CSSC[C@@H](C(=O)O)NC(=O)[C@H](Cc2ccccc2)NC(=O)[C@H]([C@@H](C)O)NC(=O)[C@H](CCCCN)NC(=O)[C@H](Cc2c[nH]c3ccccc23)NC1=O` [Peptide3] (H-CFAWKTFC-OH; disulfide 1-8), the Emax ([1]; HEK293F, read-out: Span) is reported as 65 ± 5%, the EC50 [1] is reported as 145 nM and the Emax ([2]; HEK293F, read-out: Span) is reported as 99 ± 8%. It also gave an EC50 [2] of 102 nM, an Emax ([3]; HEK293F, read-out: Span) of 48 ± 2% and an EC50 [3] of 2.34 nM. For the same molecule, the Emax ([4]; HEK293F, read-out: Span) was 106 ± 7%, the EC50 [4] was 3.47 nM and the Emax [5] was 16 ± 7%. For the same molecule, the Emax ([6]; HEK293F, read-out: Span) was 100 ± 6%, the EC50 [6] was 1.91 nM and the Emax ([7]; HEK293F, read-out: Span) was 58 ± 6%. It also gave an EC50 [7] of 1.12 nM, an Emax ([8]; CHO-K1, read-out: Span) of 132 ± 12% and an IC50 [8] of 1.29 nM. The Emax ([9]; CHO-K1, read-out: Span) was 152 ± 11%, the IC50 [9] was 0.0708 nM and the Emax ([10]; CHO-K1, read-out: Span) was 100 ± 7%. The IC50 [10, 26] was 3.8 nM, the Emax [11] was 23 ± 8% and the Emax [12] was 23 ± 5%. The Emax [13] was 26 ± 5%, the Emax [14] was 26 ± 7% and the Emax ([15]; CHO-K1, read-out: Span) was 45 ± 12%. The IC50 [15] was 1.35 nM, the Emax ([16]; CHO-K1, read-out: Span) was 96 ± 15% and the IC50 [16] was 0.0676 nM. It also gave an Emax [17] of 30 ± 16%, an Emax ([18]; window between Emax and vehicle, read-out: Span) of 100 ± 3% and an EC50 [18, 26] of 1.26 nM. It also gave an Emax ([19]; HEK293F, read-out: Span) of 20 ± 5%, an EC50 [19] of 676 nM and an Emax ([20]; HEK293F, read-out: Span) of 72 ± 4%. It also gave an EC50 [20] of 97.7 nM, an Emax ([21]; HEK293F, read-out: Span) of 93 ± 6% and an EC50 [21] of 15.1 nM. The Emax ([22]; HEK293F, read-out: Span) was 77 ± 5%, the EC50 [22] was 5.01 nM and the Emax ([23]; HEK293F, read-out: Span) was 79 ± 6%. The EC50 [23] was 0.479 nM.
For “SST-28: N-terminally extended form of bioactive SST peptide”, the “affinity for SSTR1–5” value [24] is given as “high and equal affinity for SSTR1–5”.
For “SST: Somatostatin, an inhibitory hormone”, the half-life [25] is listed as “less than 3 min”.
